Here are results for 43 compounds from patent US6723753B2, “Substituted n-benzyl-n-phenyl aminoalcohol compounds useful for inhibiting cholesteryl ester transfer protein activity” (Pharmacia Corporation, priority 2002, dated 2004).

This assay addresses T1, CETP (Homo sapiens, UniProt P11597).
T1 sequence (P11597 18-493): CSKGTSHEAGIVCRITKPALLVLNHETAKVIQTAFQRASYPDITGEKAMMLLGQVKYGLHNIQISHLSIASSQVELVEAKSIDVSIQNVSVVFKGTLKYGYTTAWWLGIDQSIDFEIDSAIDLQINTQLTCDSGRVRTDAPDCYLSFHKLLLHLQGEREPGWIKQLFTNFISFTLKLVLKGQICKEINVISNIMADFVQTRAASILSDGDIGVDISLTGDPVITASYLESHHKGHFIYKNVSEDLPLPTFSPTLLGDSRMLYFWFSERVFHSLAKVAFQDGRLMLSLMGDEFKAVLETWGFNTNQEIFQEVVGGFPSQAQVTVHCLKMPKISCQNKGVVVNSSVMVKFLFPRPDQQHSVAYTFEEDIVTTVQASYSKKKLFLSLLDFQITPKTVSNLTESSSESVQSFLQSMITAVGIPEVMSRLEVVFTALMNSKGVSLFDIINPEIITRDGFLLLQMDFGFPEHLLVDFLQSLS
The assay is described as follows: Assay of CETP Inhibition using Purified Components (Reconstituted Buffer Assay). Further details: made in house; host or cells: CHO cells (serum-free conditioned medium). Type of assay: biochemical. To be noted: transfer of [3H]CE from HDL to LDL. A digest of the protocol:
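Transfer of radiolabeled cholesteryl ester from HDL to LDL was run for 2 h at 37 °C in pH 7.4 Tris buffer with 1% BSA, using purified CHO-expressed human CETP. Precipitated LDL radioactivity, measured by scintillation after dextran sulfate/MgCl2 precipitation and filtration, yielded the IC50.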

[1] abbreviates: Inhibition of CETP activity in reconstituted buffer assay, read-out: IC50.
Setting [2] is: IC50, Inhibition of CETP activity in reconstituted buffer assay.

As a reminder, the IC50 is the concentration needed to halve the response being measured.

Like-named read-outs stand apart in the source and are kept apart here.

Consider `OC(CN(Cc1cccc(Cl)c1)Cc1ccccc1C(F)(F)F)C(F)(F)F` (stereo not shown) [compound 175], for which, under setting [1], the half-maximal inhibitory concentration (IC50) was above 100 µM.
For the compound `O=[N+]([O-])c1ccc(COc2cccc(N(Cc3cccc(OC(F)(F)C(F)F)c3)CC(O)C(F)(F)F)c2)cc1` (stereo not shown) [Example 375], under setting [1], the concentration for half-maximal inhibition (IC50) turned out to be 4.5 µM.
Still for that read-out and setting: in the case of `Cc1ncccc1Oc1cccc(N(Cc2cccc(OC(F)(F)C(F)F)c2)CC(O)C(F)(F)F)c1` (stereo not shown) [Example 289] it was 1.8 µM; in that of `COc1ccc(N(CCCC(F)(F)F)c2cccc(N(Cc3cccc(OC(F)(F)C(F)F)c3)CC(O)C(F)(F)F)c2)cc1` (stereo not shown) [Example 320], 32 µM; in that of `COc1ccc(N(Cc2cccc(OC(F)(F)F)c2)CC(O)C(F)(F)F)cc1OC` (stereo not shown) [Example 132], 25 µM.
For `Cc1cccc(S(=O)(=O)Nc2cccc(N(Cc3cccc(OC(F)(F)C(F)F)c3)CC(O)C(F)(F)F)c2)c1` (stereo not shown) [Example 530], the 50% inhibitory concentration (IC50) under setting [1] is above 50 µM.
For the compound `COc1cccc(N(Cc2cccc(OC(F)(F)F)c2)CC(O)C(F)(F)F)c1` (stereo not shown) [Example 124], the concentration for half-maximal inhibition (IC50) under setting [1] stood at 8 µM.
`COc1ccc(N(Cc2cccc(OC(F)(F)F)c2)CC(O)C(F)(F)F)cc1OC1CCCC1` (stereo not shown) [Example 159]: the IC50 under setting [1] is 3.5 µM.
In the case of `CN1CCN(C(=O)c2cccc(N(Cc3cccc(OC(F)(F)C(F)F)c3)CC(O)C(F)(F)F)c2)CC1` (stereo not shown) [Example 470], the IC50 under setting [1] is above 50 µM.
Same read-out and setting: in the case of `CN(C)C(=O)c1cccc(CN(CC(O)C(F)(F)F)c2cccc(Oc3ccccc3)c2)c1` (stereo not shown) [Example 612, N,N-dimethyl-3-[[(3-phenoxyphenyl)(3,3,3-trifluoro-2-hydroxypropyl)amino]methyl]benzamide] it was 35 µM.
For the compound `OC(CN(Cc1cccc(OC(F)(F)C(F)F)c1)c1cccc(Cc2ccc(F)cc2)c1)C(F)(F)F` (stereo not shown) [Example 519], the IC50 under setting [1] was found to be 2.5 µM.
As to `COc1cccc(COc2cccc(N(Cc3cccc(OC(F)(F)C(F)F)c3)CC(O)C(F)(F)F)c2)c1` (stereo not shown) [Example 407], the concentration for half-maximal inhibition (IC50) under setting [1] worked out at 1.5 µM.
On to `CCOC(=O)c1cccc(N(Cc2cccc(OC(F)(F)C(F)F)c2)CC(O)C(F)(F)F)c1` (stereo not shown) [Example 456B, ethyl 3-[[[3-(1,1,2,2-tetra-fluoroethoxy)phenyl]methyl](3,3,3-trifluoro-2-hydroxypropyl)amino]-benzoate], for which, under setting [1], the IC50 is 1.5 µM.
With `Cc1ccc(CN(CC(O)C(F)(F)F)c2ccc(F)c(C(F)(F)F)c2)cc1` (stereo not shown) [Example 53], the IC50 under setting [1] was 15 µM.
Same read-out and setting: in the case of `OC(CN(CCCCOc1ccccc1)c1cccc(OC(F)(F)F)c1)C(F)(F)F` (stereo not shown) [Example 336] it was above 100 µM.
`N#Cc1cccc(N(Cc2ccc(C(F)(F)F)cc2)CC(O)C(F)(F)F)c1` (stereo not shown) [Example 142]: the half-inhibitory concentration (IC50) under setting [1] was 40 µM.
Consider `OC(CN(Cc1cccc(OC(F)(F)C(F)F)c1)c1cccc(SCc2ccccn2)c1)C(F)(F)F` (stereo not shown) [Example 477], for which the half-inhibitory concentration (IC50) under setting [1] was 11 µM.
With `OC(CNCc1cccc(OC(F)(F)F)c1)C(F)(F)F` (stereo not shown) [632A], under setting [1], the IC50 was above 50 µM.
As for `OC(CN(Cc1cccc(OC(F)(F)C(F)F)c1)c1cccc(-c2ccco2)c1)C(F)(F)F` (stereo not shown) [Example 453], the IC50 under setting [1] stood at 8 µM.
In the case of `OC(CN(Cc1ccc(OCc2ccccc2)cc1)c1cccc(OC(F)(F)F)c1)C(F)(F)F` (stereo not shown) [Example 683], the IC50 under setting [1] is 20 µM.
In the case of `OC(CN(Cc1cccc(OC(F)(F)C(F)F)c1)c1cccc(OCc2cccc(Cl)c2)c1)C(F)(F)F` (stereo not shown) [Example 420], the concentration for half-maximal inhibition (IC50) under setting [1] is 0.27 µM.
Still for that read-out and setting: as for `OC(CN(Cc1cccc(C(F)(F)F)c1)c1ccc(Br)c(C(F)(F)F)c1)C(F)(F)F` (stereo not shown) [Example 625, 3-[4-bromo-3-(trifluoromethyl)phenyl[[3-(trifluoromethyl)-phenyl]methyl]amino]-1,1,1-trifluoro-2-propanol], the figure is 8.3 µM; as for `Cc1ccc(-c2cccc(N(Cc3cccc(OC(F)(F)C(F)F)c3)CC(O)C(F)(F)F)c2)cc1` (stereo not shown) [Example 566], 2.7 µM; as for `O=[N+]([O-])c1cc(Cl)ccc1CN(CC(O)C(F)(F)F)c1cccc(Oc2ccccc2)c1` (stereo not shown) [Example 684], above 100 µM.
On the same count and under the same terms, in the case of `CCc1ccc(COc2cccc(N(Cc3cccc(OC(F)(F)C(F)F)c3)CC(O)C(F)(F)F)c2)cc1` (stereo not shown) [Example 415] it was 0.29 µM; in that of `Cc1ccc(CN(CC(O)C(F)(F)F)c2cc(F)cc(F)c2)cc1` (stereo not shown) [Example 29], above 100 µM; in that of `COc1cccc(NC(=O)Nc2cccc(N(Cc3cccc(OC(F)(F)C(F)F)c3)CC(O)C(F)(F)F)c2)c1` (stereo not shown) [Example 547], above 50 µM.
Take `COc1ccccc1N(Cc1ccc(C(F)(F)F)cc1)CC(O)C(F)(F)F` (stereo not shown) [Example 682]: the IC50 under setting [1] is above 100 µM.
In the case of `OC(CN(Cc1cccc(C(F)(F)F)c1)Cc1ccccc1Cl)C(F)(F)F` (stereo not shown) [compound 187], under setting [1], the half-maximal inhibitory concentration (IC50) was above 100 µM.
The compound `CC(C)Cc1cccc(CN(CC(O)C(F)(F)F)c2cccc(Oc3ccccc3)c2)c1` (stereo not shown) [Example 598] returned an IC50 under setting [2] of 0.54 µM.
Take `FC(F)C(F)(F)Oc1cccc(C2OC(C(F)(F)F)CN2c2cccc(Oc3ccccc3)c2)c1` (stereo not shown) [Example 610, 3-(3-phenoxyphenyl)-2-[3-(1,1,2,2-tetrafluoroethoxy)phenyl]-5-(trifluoromethyl)oxazolidine]: the IC50 under setting [1] worked out at 20 µM.
With `CC(CCc1cccc(OC(F)(F)F)c1)N(CC(O)C(F)(F)F)c1cccc(Oc2ccccc2)c1` (stereo not shown) [Example 626, 3-[[1-methyl-3-[3-(trifluoromethoxy)phenyl]propyl](3-phenoxyphenyl)amino]-1,1,1-trifluoro-2-propanol], the concentration for half-maximal inhibition (IC50) under setting [1] stood at 30 µM.
With `CC(=O)c1ccc(S(=O)(=O)c2cccc(N(Cc3cccc(OC(F)(F)C(F)F)c3)CC(O)C(F)(F)F)c2)cc1` (stereo not shown) [Example 486], under setting [1], the IC50 is 10 µM.
Take `OC(CN(Cc1cccc(OC(F)(F)F)c1)c1ccc(Oc2ccccc2)cc1)C(F)(F)F` (stereo not shown) [Example 133]: under setting [2], the IC50 worked out at 25 µM.
In the case of `COc1cccc(CN(CC(O)C(F)(F)F)c2cccc(OC(F)(F)F)c2)c1` (stereo not shown) [Example 348], under setting [1], the half-maximal inhibitory concentration (IC50) turned out to be 35 µM.
For the compound `COc1cc(N(Cc2cccc(OC(F)(F)F)c2)CC(O)C(F)(F)F)cc(OC)c1OC` (stereo not shown) [Example 160], under setting [1], the IC50 came out at 20 µM.
Take `N#Cc1ccc(CN(CC(O)C(F)(F)F)c2cccc(Oc3ccccc3)c2)cc1` (stereo not shown) [Example 146]: under setting [1], the 50% inhibitory concentration (IC50) is 10 µM.
Same read-out and setting: in the case of `N#CCCCOc1cccc(N(Cc2cccc(OC(F)(F)C(F)F)c2)CC(O)C(F)(F)F)c1` (stereo not shown) [Example 501] it was 3.6 µM; in that of `CC(C)COC(=O)Nc1cccc(N(Cc2cccc(OC(F)(F)C(F)F)c2)CC(O)C(F)(F)F)c1` (stereo not shown) [Example 538], above 50 µM; in that of `CC(=O)Oc1cccc(CN(CC(O)C(F)(F)F)c2cccc(OC(F)(F)F)c2)c1` (stereo not shown) [Example 102], 60 µM.
For the compound `COc1cc(CN(CC(O)C(F)(F)F)c2cccc(OC(F)(F)F)c2)ccc1OCc1ccccc1` (stereo not shown) [Example 106], the IC50 under setting [1] stood at 30 µM.
Regarding `CCN(c1ccc(OC)cc1)c1cccc(N(Cc2cccc(OC(F)(F)C(F)F)c2)CC(O)C(F)(F)F)c1` (stereo not shown) [Example 319], the half-maximal inhibitory concentration (IC50) under setting [1] came out at 4.7 µM.
In the case of `OC(CN(Cc1cccc(OC(F)(F)C(F)F)c1)c1cccc(Oc2cc(F)ccc2F)c1)C(F)(F)F` (stereo not shown) [Example 235], under setting [1], the IC50 came to 0.31 µM.
